How the values were obtained:
Experiment in all cases: biochemical
[1] = biological target: T1, 371 kinases (kinase named in each endpoint) (Homo sapiens, UniProt O60674); details: JAK2
T1 construct: purchased Reaction Biology

[2] = biological target: T2, 371 kinases (kinase named in each endpoint) (Homo sapiens, UniProt O75385); details: ULK1
T2 construct: purchased Reaction Biology

[3] = biological target: T3, 371 kinases (kinase named in each endpoint) (Homo sapiens, UniProt O95835); details: LATS1
T3 construct: purchased Reaction Biology

[4] = biological target: T4, 371 kinases (kinase named in each endpoint) (Homo sapiens, UniProt P00533); details: EGFR
T4 construct: purchased Reaction Biology

[5] = biological target: T5, 371 kinases (kinase named in each endpoint) (Homo sapiens, UniProt P04049); details: RAF1
T5 construct: purchased Reaction Biology
T5 sequence (P04049 whole entry): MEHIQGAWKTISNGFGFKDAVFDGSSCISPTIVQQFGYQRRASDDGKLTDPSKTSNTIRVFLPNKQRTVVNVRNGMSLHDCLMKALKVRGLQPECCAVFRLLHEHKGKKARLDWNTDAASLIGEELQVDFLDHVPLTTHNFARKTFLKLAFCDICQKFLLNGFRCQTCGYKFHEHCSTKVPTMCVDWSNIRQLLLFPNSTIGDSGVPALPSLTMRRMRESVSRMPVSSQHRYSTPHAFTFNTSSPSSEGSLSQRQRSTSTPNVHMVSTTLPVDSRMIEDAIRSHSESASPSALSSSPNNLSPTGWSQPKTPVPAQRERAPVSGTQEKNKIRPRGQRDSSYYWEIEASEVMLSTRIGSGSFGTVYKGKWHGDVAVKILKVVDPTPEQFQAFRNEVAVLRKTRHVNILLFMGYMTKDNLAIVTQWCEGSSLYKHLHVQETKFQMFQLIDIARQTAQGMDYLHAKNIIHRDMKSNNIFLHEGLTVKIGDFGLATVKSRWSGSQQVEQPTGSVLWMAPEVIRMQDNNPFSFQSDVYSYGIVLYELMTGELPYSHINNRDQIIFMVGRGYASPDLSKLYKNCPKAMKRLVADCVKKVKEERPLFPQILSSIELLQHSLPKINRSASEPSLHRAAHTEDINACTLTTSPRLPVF

[6] = biological target: T6, 371 kinases (kinase named in each endpoint) (Homo sapiens, UniProt P04629); details: TRKA
T6 construct: purchased Reaction Biology

[7] = biological target: T7, 371 kinases (kinase named in each endpoint) (Homo sapiens, UniProt P06239); details: LCK
T7 construct: purchased Reaction Biology

[8] = biological target: T8, 371 kinases (kinase named in each endpoint) (Homo sapiens, UniProt P08069); details: IGF1R
T8 construct: purchased Reaction Biology

[9] = biological target: T9, 371 kinases (kinase named in each endpoint) (Homo sapiens, UniProt P08631); details: HCK
T9 construct: purchased Reaction Biology

[10] = biological target: T10, 371 kinases (kinase named in each endpoint) (Homo sapiens, UniProt P08922); details: ROS/ROS1
T10 construct: purchased Reaction Biology

[11] = biological target: T11, 371 kinases (kinase named in each endpoint) (Homo sapiens, UniProt P21709); details: EPHA1
T11 construct: purchased Reaction Biology

[12] = biological target: T12, 371 kinases (kinase named in each endpoint) (Homo sapiens, UniProt P36894); details: ALK3/BMPR1A
T12 construct: purchased Reaction Biology

[13] = biological target: T13, 371 kinases (kinase named in each endpoint) (Homo sapiens, UniProt P42681); details: TXK
T13 construct: purchased Reaction Biology

[14] = biological target: T14, 371 kinases (kinase named in each endpoint) (Homo sapiens, UniProt Q04771); details: ALK2/ACVR1
T14 construct: purchased Reaction Biology

[15] = biological target: T15, 371 kinases (kinase named in each endpoint) (Homo sapiens, UniProt Q05397); details: FAK/PTK2
T15 construct: purchased Reaction Biology

[16] = biological target: T16, 371 kinases (kinase named in each endpoint) (Homo sapiens, UniProt Q08881); details: ITK
T16 construct: purchased Reaction Biology

[17] = biological target: T17, 371 kinases (kinase named in each endpoint) (Homo sapiens, UniProt Q09013); details: DMPK
T17 construct: purchased Reaction Biology

[18] = biological target: T18, 371 kinases (kinase named in each endpoint) (Homo sapiens, UniProt Q13177); details: PAK2
T18 construct: purchased Reaction Biology

[19] = biological target: T19, 371 kinases (kinase named in each endpoint) (Homo sapiens, UniProt Q13554); details: CAMK2B
T19 construct: purchased Reaction Biology

[20] = biological target: T20, 371 kinases (kinase named in each endpoint) (Homo sapiens, UniProt Q15139); details: PKCMU/PRKD1
T20 construct: purchased Reaction Biology

[21] = biological target: T21, 371 kinases (kinase named in each endpoint) (Homo sapiens, UniProt Q15759); details: P38B/MAPK11
T21 construct: purchased Reaction Biology

[22] = biological target: T22, 371 kinases (kinase named in each endpoint) (Homo sapiens, UniProt Q32MK0); details: MYLK3
T22 construct: purchased Reaction Biology

[23] = biological target: T23, 371 kinases (kinase named in each endpoint) (Homo sapiens, UniProt Q6P2M8); details: CAMK1B
T23 construct: purchased Reaction Biology

[24] = biological target: T24, 371 kinases (kinase named in each endpoint) (Homo sapiens, UniProt Q86YV6); details: MYLK4
T24 construct: purchased Reaction Biology
T24 sequence (Q86YV6 whole entry): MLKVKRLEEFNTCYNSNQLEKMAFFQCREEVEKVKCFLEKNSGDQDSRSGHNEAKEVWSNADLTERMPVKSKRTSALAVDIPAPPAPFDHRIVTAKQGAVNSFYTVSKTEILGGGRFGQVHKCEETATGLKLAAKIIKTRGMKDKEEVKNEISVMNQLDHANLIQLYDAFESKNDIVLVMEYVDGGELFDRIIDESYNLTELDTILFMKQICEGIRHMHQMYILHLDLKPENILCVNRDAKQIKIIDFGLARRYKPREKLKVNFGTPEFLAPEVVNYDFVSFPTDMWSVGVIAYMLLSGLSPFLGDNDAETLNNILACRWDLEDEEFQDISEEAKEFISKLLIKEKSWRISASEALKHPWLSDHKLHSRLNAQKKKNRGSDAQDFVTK

[25] = biological target: T25, 371 kinases (kinase named in each endpoint) (Homo sapiens, UniProt Q8N568); details: DCAMKL2
T25 construct: purchased Reaction Biology

[26] = biological target: T26, 371 kinases (kinase named in each endpoint) (Homo sapiens, UniProt Q8NEV4); details: MYO3A
T26 construct: purchased Reaction Biology

[27] = biological target: T27, 371 kinases (kinase named in each endpoint) (Homo sapiens, UniProt Q8TDC3); details: BRSK1
T27 construct: purchased Reaction Biology

[28] = biological target: T28, 371 kinases (kinase named in each endpoint) (Homo sapiens, UniProt Q8TDX7); details: NEK7
T28 construct: purchased Reaction Biology

[29] = biological target: T29, 371 kinases (kinase named in each endpoint) (Homo sapiens, UniProt Q9H1R3); details: MLCK2/MYLK2
T29 construct: purchased Reaction Biology

[30] = biological target: T30, 371 kinases (kinase named in each endpoint) (Homo sapiens, UniProt Q9H4B4); details: PLK3
T30 construct: purchased Reaction Biology

[31] = biological target: T31, 371 kinases (kinase named in each endpoint) (Homo sapiens, UniProt Q9HC98); details: NEK6
T31 construct: purchased Reaction Biology

[32] = biological target: T32, 371 kinases (kinase named in each endpoint) (Homo sapiens, UniProt Q9P0L2); details: MARK1
T32 construct: purchased Reaction Biology
T32 sequence (Q9P0L2 whole entry): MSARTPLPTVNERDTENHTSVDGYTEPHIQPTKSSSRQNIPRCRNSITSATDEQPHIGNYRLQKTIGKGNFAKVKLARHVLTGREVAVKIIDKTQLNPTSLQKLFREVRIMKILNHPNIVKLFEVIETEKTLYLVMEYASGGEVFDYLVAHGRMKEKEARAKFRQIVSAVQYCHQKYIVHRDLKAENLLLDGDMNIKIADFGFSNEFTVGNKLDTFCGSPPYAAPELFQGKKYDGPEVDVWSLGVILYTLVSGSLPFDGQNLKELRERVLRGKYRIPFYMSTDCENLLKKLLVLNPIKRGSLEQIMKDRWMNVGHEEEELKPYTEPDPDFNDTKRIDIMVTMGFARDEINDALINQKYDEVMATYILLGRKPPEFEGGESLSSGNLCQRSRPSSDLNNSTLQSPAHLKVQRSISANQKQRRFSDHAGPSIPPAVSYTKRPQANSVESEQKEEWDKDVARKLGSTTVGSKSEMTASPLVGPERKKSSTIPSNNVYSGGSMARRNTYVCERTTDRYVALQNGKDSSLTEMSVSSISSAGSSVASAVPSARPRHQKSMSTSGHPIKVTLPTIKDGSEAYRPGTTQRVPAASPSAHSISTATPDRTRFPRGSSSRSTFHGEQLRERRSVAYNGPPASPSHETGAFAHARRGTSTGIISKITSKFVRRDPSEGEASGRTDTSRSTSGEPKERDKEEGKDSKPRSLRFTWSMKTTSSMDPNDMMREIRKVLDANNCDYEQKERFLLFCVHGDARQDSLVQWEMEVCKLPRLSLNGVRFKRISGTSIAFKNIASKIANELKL

[33] = biological target: T33, 371 kinases (kinase named in each endpoint) (Homo sapiens, UniProt Q9UEW8); details: STK39/STLK3
T33 construct: purchased Reaction Biology

[34] = biological target: T34, 371 kinases (kinase named in each endpoint) (Homo sapiens, UniProt Q9UIK4); details: DAPK2
T34 construct: purchased Reaction Biology

[35] = biological target: T35, 371 kinases (kinase named in each endpoint) (Homo sapiens, UniProt Q9UKE5); details: TNIK
T35 construct: purchased Reaction Biology
T35 sequence (Q9UKE5 whole entry): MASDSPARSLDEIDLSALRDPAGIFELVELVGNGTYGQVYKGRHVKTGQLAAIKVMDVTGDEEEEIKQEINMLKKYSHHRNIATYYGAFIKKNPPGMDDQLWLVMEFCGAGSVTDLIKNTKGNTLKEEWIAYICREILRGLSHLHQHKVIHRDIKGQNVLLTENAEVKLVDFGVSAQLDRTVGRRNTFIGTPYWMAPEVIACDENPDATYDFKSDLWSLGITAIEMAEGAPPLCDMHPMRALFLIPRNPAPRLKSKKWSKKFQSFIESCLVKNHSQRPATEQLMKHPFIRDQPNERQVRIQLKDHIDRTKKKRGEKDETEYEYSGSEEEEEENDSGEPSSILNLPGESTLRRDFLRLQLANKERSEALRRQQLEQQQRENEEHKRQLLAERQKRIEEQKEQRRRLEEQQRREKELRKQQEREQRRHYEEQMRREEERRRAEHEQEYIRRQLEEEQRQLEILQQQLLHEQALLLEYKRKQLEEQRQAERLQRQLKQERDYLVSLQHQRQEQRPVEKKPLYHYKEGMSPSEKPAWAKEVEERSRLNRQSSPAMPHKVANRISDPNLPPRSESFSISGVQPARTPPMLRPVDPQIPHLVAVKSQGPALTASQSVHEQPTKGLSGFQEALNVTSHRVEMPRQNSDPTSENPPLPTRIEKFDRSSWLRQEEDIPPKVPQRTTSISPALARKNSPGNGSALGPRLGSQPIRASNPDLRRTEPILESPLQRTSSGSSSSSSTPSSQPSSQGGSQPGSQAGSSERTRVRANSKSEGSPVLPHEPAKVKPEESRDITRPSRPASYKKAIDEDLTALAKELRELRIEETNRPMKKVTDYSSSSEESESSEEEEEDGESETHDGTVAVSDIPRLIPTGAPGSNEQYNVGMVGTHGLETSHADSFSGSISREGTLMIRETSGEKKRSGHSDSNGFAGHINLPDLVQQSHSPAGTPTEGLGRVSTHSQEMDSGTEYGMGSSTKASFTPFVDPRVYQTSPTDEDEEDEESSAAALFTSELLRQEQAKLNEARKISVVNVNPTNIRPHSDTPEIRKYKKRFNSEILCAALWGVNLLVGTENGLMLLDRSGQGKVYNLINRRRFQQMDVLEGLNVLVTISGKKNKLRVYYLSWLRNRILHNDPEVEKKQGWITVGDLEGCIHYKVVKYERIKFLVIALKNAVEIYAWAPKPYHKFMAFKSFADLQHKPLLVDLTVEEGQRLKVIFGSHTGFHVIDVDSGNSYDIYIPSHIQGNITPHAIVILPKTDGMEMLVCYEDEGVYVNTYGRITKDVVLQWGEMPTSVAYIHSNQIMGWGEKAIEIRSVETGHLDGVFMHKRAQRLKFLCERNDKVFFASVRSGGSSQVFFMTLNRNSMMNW

[36] = biological target: T36, 371 kinases (kinase named in each endpoint) (Homo sapiens, UniProt Q9UL54); details: TAOK2/TAO1
T36 construct: purchased Reaction Biology
T36 sequence (Q9UL54 whole entry): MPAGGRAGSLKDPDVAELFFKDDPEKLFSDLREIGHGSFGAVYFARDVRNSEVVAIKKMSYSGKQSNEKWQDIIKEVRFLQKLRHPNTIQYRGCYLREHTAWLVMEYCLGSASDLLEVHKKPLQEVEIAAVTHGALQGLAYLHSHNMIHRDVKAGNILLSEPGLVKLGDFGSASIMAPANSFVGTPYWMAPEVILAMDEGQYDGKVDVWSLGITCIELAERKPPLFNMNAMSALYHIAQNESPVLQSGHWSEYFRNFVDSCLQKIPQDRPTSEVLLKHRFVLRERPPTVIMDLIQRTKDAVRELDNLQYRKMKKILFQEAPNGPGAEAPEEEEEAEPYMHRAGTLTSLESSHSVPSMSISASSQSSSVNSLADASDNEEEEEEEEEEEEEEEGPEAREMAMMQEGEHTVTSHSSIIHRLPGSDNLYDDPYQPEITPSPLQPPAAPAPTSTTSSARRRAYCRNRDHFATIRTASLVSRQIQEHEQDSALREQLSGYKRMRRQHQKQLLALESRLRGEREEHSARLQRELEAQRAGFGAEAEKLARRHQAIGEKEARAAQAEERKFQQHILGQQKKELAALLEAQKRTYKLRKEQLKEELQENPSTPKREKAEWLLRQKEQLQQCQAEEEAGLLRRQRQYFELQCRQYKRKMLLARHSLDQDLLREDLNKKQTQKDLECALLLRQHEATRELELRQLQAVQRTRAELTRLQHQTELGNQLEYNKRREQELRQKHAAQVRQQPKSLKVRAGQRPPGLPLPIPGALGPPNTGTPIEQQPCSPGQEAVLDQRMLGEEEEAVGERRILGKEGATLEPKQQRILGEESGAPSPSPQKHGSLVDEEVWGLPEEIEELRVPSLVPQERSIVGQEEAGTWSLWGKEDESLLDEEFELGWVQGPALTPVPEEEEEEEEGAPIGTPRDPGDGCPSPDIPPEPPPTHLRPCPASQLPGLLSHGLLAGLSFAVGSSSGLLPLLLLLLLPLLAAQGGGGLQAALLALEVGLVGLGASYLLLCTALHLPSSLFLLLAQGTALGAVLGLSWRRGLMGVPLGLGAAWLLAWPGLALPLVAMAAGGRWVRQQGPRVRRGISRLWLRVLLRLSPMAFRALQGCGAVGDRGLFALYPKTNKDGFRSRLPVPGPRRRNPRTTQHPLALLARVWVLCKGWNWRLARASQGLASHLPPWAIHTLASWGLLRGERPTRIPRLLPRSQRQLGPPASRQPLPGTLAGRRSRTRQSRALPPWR

[37] = biological target: T37, 371 kinases (kinase named in each endpoint) (Homo sapiens, UniProt Q9UQM7); details: CAMK2A
T37 construct: purchased Reaction Biology
T37 sequence (Q9UQM7 whole entry): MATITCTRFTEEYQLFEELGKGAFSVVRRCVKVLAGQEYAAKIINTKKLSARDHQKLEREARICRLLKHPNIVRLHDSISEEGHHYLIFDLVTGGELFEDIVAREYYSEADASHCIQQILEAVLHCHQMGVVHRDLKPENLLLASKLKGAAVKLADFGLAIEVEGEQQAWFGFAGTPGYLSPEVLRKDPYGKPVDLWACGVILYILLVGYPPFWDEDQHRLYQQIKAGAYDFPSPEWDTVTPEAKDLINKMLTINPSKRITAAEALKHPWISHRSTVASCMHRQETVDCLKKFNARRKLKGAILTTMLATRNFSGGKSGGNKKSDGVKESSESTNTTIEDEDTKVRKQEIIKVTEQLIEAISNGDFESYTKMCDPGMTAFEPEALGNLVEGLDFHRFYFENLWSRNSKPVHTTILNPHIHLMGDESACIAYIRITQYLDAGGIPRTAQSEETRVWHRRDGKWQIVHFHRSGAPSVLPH

Compound `O=C(O)c1cc(C(F)(F)F)ccc1NCCc1c[nH]c2cc(Br)ccc12` [Compound 5, 2-((2-(6-Bromo-1H-indol-3-yl)ethyl)amino)−5-(trifluoromethyl)benzoic Acid] has an activity at 10 µM [1] of 78.8 ± 1.9%, an activity at 10 µM [2] of 106.8 ± 0.3% and an activity at 10 µM [3] of 93 ± 3.5%. It also gave an activity at 10 µM [4] of 87.8 ± 1%, an activity at 10 µM [5] of 97.8 ± 0.2% and an activity at 10 µM [6] of 65.1 ± 1.6%. It also gave an activity at 10 µM [7] of 76.5 ± 2.7%, an activity at 10 µM [8] of 93.2 ± 0.1% and an activity at 10 µM [9] of 86.2 ± 0.4%. For the same compound, the activity at 10 µM [10] was 94.7 ± 1.4%, the activity at 10 µM [11] was 102.2 ± 0.1% and the activity at 10 µM [12] was 71.1 ± 2%. It also gave an activity at 10 µM [13] of 80.5 ± 0.4%, an activity at 10 µM [14] of 74.1 ± 1.8% and an activity at 10 µM [15] of 88.2 ± 1.5%. The activity at 10 µM [16] was 127 ± 0.1%, the activity at 10 µM [17] was 108.2 ± 0.2% and the activity at 10 µM [18] was 95.6 ± 0.3%. It also gave an activity at 10 µM [19] of 62.2 ± 0.8%, an activity at 10 µM [20] of 115.9 ± 0.9% and an activity at 10 µM [21] of 140 ± 2.3%. For the same compound, the activity at 10 µM [22] was 90.9 ± 3.2%, the activity at 10 µM [23] was 59.1 ± 0.7% and the activity at 10 µM [24] was 78.7 ± 0.2%. It also gave an activity at 10 µM [25] of 101.3 ± 0.6%, an activity at 10 µM [26] of 118 ± 3.4% and an activity at 10 µM [27] of 77.2 ± 2.3%. For the same compound, the activity at 10 µM [28] was 80.2 ± 0.8%, the activity at 10 µM [29] was 70.7 ± 0.3% and the activity at 10 µM [30] was 79.3 ± 3.7%. For the same compound, the activity at 10 µM [31] was 77.6 ± 0.1%, the activity at 10 µM [32] was 93.3 ± 0.5% and the activity at 10 µM [33] was 113.4 ± 0.1%. The activity at 10 µM [34] was 78.8 ± 0.4%, the activity at 10 µM [35] was 51.9 ± 1.4% and the activity at 10 µM [36] was 100.9 ± 0.2%. It also gave an activity at 10 µM [37] of 70.2 ± 3.3%.

From article PMC10239507, “Development of allosteric and selective CDK2 inhibitors for contraception with negative cooperativity to cyclin binding” (Nature Communications, 2023)
